The subject of test [1] is CARP gene. Kind of test: CARP gene expression in primary neonatal rat cardiomyocytes, TaqMan quantification. It is filed as cell-based. To be noted: serum-removed medium, added to 10 nM, 100 nM or 1000 nM, at maximum.
Test [2] relates to CARP gene. In words: CARP gene expression in H9c2 cells, TaqMan PCR. It is filed as cell-based, rat. The settings on record: serum-free DMEM, 10 nM or 100 nM, 4 hours and 8 hours, at maximum. Here is the method: H9c2 cell is a cell line derived from rat cardiomyocytes and was purchased from ATCC. The cells were incubated in DMEM medium supplemented with 10% calf serum. After recovery of cells using trypsin, the cells were inoculated on a 12-well plate in 100000 cells/well, followed by incubation in a 10% calf serum-containing DMEM medium for 12 hours. Thereafter, the medium was exchanged with a fresh serum-free DMEM medium, to which norepinephrine was supplemented in 10 nM or 100 nM, and the CARP gene expression level was quantitatively determined by TaqMan PCR with passage of 4 hours and 8 hours. Also, the copy number of […] gene (G3PDH) was quantitatively determined in a similar manner, and the copy number of CARP gene calculated was corrected by G3PDH. […] According to this system, the CARP gene expression can be quantitatively determined in response to various hypertrophic stimuli or in the apoptosis induction stage, and thus the system can be used for screening a CARP gene expression regulator. Moreover, by performing reporter gene assay using a promoter of the CARP gene, a low variation rate can be changed to a high variation rate to achieve high sensitization, thus enabling to high throughput screening.
In general terms: Quantitative PCR measures a nucleic acid by following its amplification.

Turning to `CC[C@H](C)[C@H](NC(=O)[C@H](CC(=O)O)NC(=O)[C@H](CC(C)C)NC(=O)[C@H](Cc1c[nH]cn1)NC(=O)[C@@H]1CSSC[C@H](N)C(=O)N[C@@H](CO)C(=O)N[C@H]2CSSC[C@H](NC(=O)[C@H](CCC(=O)O)NC(=O)[C@H](CCCCN)NC(=O)[C@H](CC(=O)O)NC(=O)[C@H](CCSC)NC(=O)[C@H](CC(C)C)NC(=O)[C@H](CO)NC(=O)[C@H](CO)NC2=O)C(=O)N[C@@H](C(C)C)C(=O)N[C@@H](Cc2ccc(O)cc2)C(=O)N[C@@H](Cc2ccccc2)C(=O)N1)C(=O)N[C@H](C(=O)N[C@@H](Cc1c[nH]c2ccccc12)C(=O)O)[C@@H](C)CC` [endothelin], the “increase of expression of the CARP gene” value in test [1] is recorded as “about 3 times”.
Turning to `NC[C@H](O)c1ccc(O)c(O)c1` [norepinephrine], in test [1], the “increase of expression of the CARP gene” value is “about 3 times”. The “increase of expression level of CARP gene (corrected by G3PDH)” value in test [2] is approximately 2 fold.

(Values after patent publication US20030108951A1, “Use of diseases-associated gene” (priority 2000, published 2003).)
